According to the NIST ThermoML archive (doi:10.1016/j.fluid.2005.11.017):
Where “and” joins values, the source holds several entries; their conditions need not be identical. Equal entries are not always repeated. Numbers after ± are expanded uncertainties.

Conditions: 313.15 K; Liquid

| vapor or sublimation pressure | SMILES |
| --- | --- |
| 4.015 ± 0.056 kPa [middle of 4 runs] | CC(C)CO [2-methyl-1-propanol] |
| 24.38 ± 0.18 kPa and 24.36 ± 0.18 kPa | c1ccccc1 [benzene] |

| SMILES | vapor or sublimation pressure |
| --- | --- |
| CC(C)OC(C)C [diisopropyl ether] | 37.11 ± 0.27 kPa and 37.09 ± 0.27 kPa and 37.14 ± 0.27 kPa |
